Data set [1] deals with T. cruzi amastigotes. On the set-up: method as in earlier work. The following applies: read-out: In vitro anti-T. cruzi activity (multiple strains) (IC50); cited from earlier work.
The subject of data set [2] is Salmonella typhimurium strains TA98, T100, T102, TA1535, and TA1537. The following applies: cited from earlier work.
Data set [3] has as its system Leishmania infantum. On the set-up: method as in earlier work. The following applies: amastigotes; read-out: In vitro anti-Leishmania infantum (visceral) activity (IC50); cited from earlier work.
Data set [4] concerns Leishmania spp (cutaneous) promastigotes. On the set-up: method as in earlier work. The following applies: read-out: In vitro anti-Leishmania spp (cutaneous) activity (IC50); cited from earlier work.
The subject of data set [5] is CD1 and Balb/c mice. On the set-up: method as in earlier work. The conditions noted are these: cited from earlier work.
Data set [6] relates to CD-1 mice. The conditions noted are these: mouse, in vivo; cited from earlier work.
The subject of data set [7] is cruzipain. The conditions noted are these: cited from earlier work.
In data set [8] the test system is zebrafish embryos. On the set-up: method as in earlier work. The following applies: cited from earlier work.
For data set [9], the system named is epimastigote form of T. cruzi, Tulahuen 2 strain. Nature of the data set: Mechanism of death by flow cytometry, AV/IP labeling. Format: cell-based. The conditions noted are these: 24 h; 20 × IC50. On the procedure:
Parasites were immediately analyzed on an Accuri C6 flow cytometer (BD Bioscience, Franklin Lakes, New Jersey, U.S.). […] Ten thousand events were analyzed for each of the two independent experiments. Data were analyzed using BD CSampler software (BD Bioscience). Untreated parasites were used as a control. For the positive control of apoptosis and necrosis, the parasites were treated with hydrogen peroxide (H2O2) 50 µM and 100 µM for 2.5 h, respectively. These single-spot controls were used to calculate color compensation for flow cytometry.

Data set [10] concerns CL Brener clone of T. cruzi. Nature of the data set: Acute murine model of Chagas disease. Format: in vivo, Balb/c mice. On the procedure:
Three-month-old Balb/c mice were infected (day 0) with infected blood from mice at the beginning of the peak of parasitemia (parasitemia greater than 1.0 × 10^6 p /mL with the CL Brener clone of T. cruzi) by intraperitoneal injection (10,000 parasites per mouse). Parasitemia was followed from the fourth-day post-infection until all the mice in the group were positive. Parasitemia measurements were performed by optical microscopy. Once all the mice were positive, the treatment was started. The treatment lasted 15 consecutive days; the compounds were administered orally by intragastric cannula once a day. Parasitemia was monitored weekly. At 30 and 60 days, 200 μL of blood was extracted from the mouse tail for serological tests (ELISA test) to detect antigens of T. cruzi. Day 60 was the end of the experiment, and the animals were sacrificed.
Hemoconcentration and counting micromethod: the mice were bled by pricking the tail and taking the blood with capillaries. One capillary per mouse draws 8-18 mm in height of blood. The millimeters were converted to μL by a table previously described and calibrated in the laboratory. The capillaries were centrifuged at 3000× g for 40 s. The parasitic load in the capillary was observed by optical microscopy (OM) in the capillary: the red blood cells (GR) were distributed at one end and the supernatant serum at the other end, at the interface is the trypomastigotes. Then, the capillary was cut a few mm on the interface towards the GR part and its content was spread on a slide, covered with a coverslip. Then, the total number of parasites in 50 fields (OM at 40× magnification) was counted. This sum was then multiplied by 1/50 to obtain the average number of trypomastigotes per field, corresponding to the number of trypanosomes per 5 mm^3. This was then compared to the samples from control animals. The mean and standard deviation were calculated by using OriginPro9 and GraphPad Prism 5. Comparisons of parasite suppression were completed by the analysis of variance (two-way ANOVA as a […] statistical test).

Data set [11] relates to CD-1 mice. Nature of the data set: Micronucleus test in mice (genotoxicity). The conditions noted are these: positive control, 50 mg/kg intraperitoneal, single dose 24 h before sacrifice. On the procedure:
The protocol was approved by the Paraguayan ethics committee for animal experimentation (No. IORG0010088). […] The treatment of each group was repeated five times, totaling 5 animals per concentration. The route used in the administration of the negative control and the compound (groups I and II) was oral, using an esophageal cannula and in group III the route was intraperitoneal. The intervention was carried out in two doses: 24 and 48 h before sacrifice, except for cyclophosphamide, which was administered in a single dose, 24 h before sacrifice. At the end of the experiment, the femurs were harvested, and the red bone marrow was removed with fetal bovine serum, kept at 37 °C. […] Samples were stained with 4 % Giemsa stain for 3 min and analyzed under an immersion light microscope. For each treated animal, 1000 polychromatic erythrocytes (EPCs) were counted, including those that presented micronucleus (EPCMNs). The ratio of polychromatic erythrocytes (EPC) vs. normochromatic erythrocytes (ENC), upon counting 100 cells, was also evaluated. The proportion of EPCMNs was calculated for each group, and the treated groups with the compound and cyclophosphamide were compared with the negative control group. The statistical analysis was carried out from the individual values of the evaluated parameters, calculating the mean values and their standard deviations for each of the experimental groups. […]

Where “and” joins values, the source holds several entries; their conditions need not be identical. Identical values can stand only once.

Turning to `CC(=NNC(N)=S)[C@H]1CC[C@H]2[C@@H]3CC=C4C[C@@H](O)CC[C@]4(C)[C@H]3CC[C@]12C` [Compound 1260, 1-(3β-Hydroxy-pregn-5-ene-20E-ylydene)thiosemicarbazide], the IC50 (usually the concentration at which inhibition is half-maximal) in [1] is 0.1 µM; in data set [3] it was under 0.2 µM; in data set [4] it was under 20 µM. In addition, the “Ames test (mutagenicity)” value in [2] is reported as “NO”. Also, the “Acute oral toxicity in mice (Up and Down test, LD50)” value in data set [5] was > 2000 mg/kg of body weight. Moreover, the “Micronucleus test in mice (Genotoxicity)” value in data set [6] is listed as “NO”. Moreover, the “Cruzipain inhibitor (known)” value in data set [7] was “not an inhibitor of cruzipain”. The “Teratogenicity in zebrafish (LD50)” value in [8] was over 15 µM.

For the compound `CC1CS(=O)(=O)CCN1/N=C/c1ccc([N+](=O)[O-])o1` (stereo not shown) [Nfx, Nifurtimox, reference compound], the “AV/IP labeling Q1-UR (double AV+/IP+ labeling)” value in data set [9] stood at 59%.

On to `O=C(Cn1ccnc1[N+](=O)[O-])NCc1ccccc1` [Bnz, Benznidazole], for which the “Days Post-Infection of the First Parasitemia Peak” value in data set [10] (10 µmoles/kg/day) is given as 15 days; in [10] (38 µmoles/kg/day), 15 days; in data set [10] (48 µmoles/kg/day), 43 days. The “Reduction in the Parasitemia Peak (%)” value is on record as 80% in data set [10] (10 µmoles/kg/day), 90% in [10] (38 µmoles/kg/day) and 95% in [10] (48 µmoles/kg/day). For the same compound, the “Survival (%)” value in data set [10] (10 µmoles/kg/day), in data set [10] (38 µmoles/kg/day) and in [10] (48 µmoles/kg/day) was 100% throughout.

For the compound `O=P1(N(CCCl)CCCl)NCCCO1` (stereo not shown) [cyclophosphamide, reference compound], the “Micronucleus test in mice (Genotoxicity) (mean of MnPE ±SD)” value in data set [11] was 36 ± 2 MnPE and 36 ± 2 (cyclophosphamide) MnPE.

The values are drawn from paper PMC9863266, “Preclinical Studies and Drug Combination of Low-Cost Molecules for Chagas Disease” (Pharmaceuticals, 2022).
